Measured values as given in US7074789B2, “Kinase inhibitors” (Amgen Inc., priority 1999, dated 2006).
Where two headings read alike, the source gives them in different places.

Legend:
Assay type in all cases: biochemical
Kdr = target: T1, Kdr (Homo sapiens, UniProt P35968); test: Kinase inhibition assay (33P transfer), Kdr; details: read-out: KDR-1
T1 construct: Kinases are expressed as either kinase domains or full length constructs; made in house
Outline: (§1)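 Each kinase, expressed as a GST- or polyHis-tagged domain or full-length protein, phosphorylated plate-attached poly(Glu,Tyr) 4:1 or poly(Arg,Ser) 3:1 using 33P-ATP. Bound radioactivity was measured by scintillation after a 0.5% phosphoric acid wash.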

Zap-70 = target: T2, Zap-70 (Homo sapiens, UniProt P43403); test: Kinase inhibition assay (33P transfer), Zap-70; details: read-out: Zap-1
T2 construct: Kinases are expressed as either kinase domains or full length constructs; made in house
T2 sequence (P43403 1-619): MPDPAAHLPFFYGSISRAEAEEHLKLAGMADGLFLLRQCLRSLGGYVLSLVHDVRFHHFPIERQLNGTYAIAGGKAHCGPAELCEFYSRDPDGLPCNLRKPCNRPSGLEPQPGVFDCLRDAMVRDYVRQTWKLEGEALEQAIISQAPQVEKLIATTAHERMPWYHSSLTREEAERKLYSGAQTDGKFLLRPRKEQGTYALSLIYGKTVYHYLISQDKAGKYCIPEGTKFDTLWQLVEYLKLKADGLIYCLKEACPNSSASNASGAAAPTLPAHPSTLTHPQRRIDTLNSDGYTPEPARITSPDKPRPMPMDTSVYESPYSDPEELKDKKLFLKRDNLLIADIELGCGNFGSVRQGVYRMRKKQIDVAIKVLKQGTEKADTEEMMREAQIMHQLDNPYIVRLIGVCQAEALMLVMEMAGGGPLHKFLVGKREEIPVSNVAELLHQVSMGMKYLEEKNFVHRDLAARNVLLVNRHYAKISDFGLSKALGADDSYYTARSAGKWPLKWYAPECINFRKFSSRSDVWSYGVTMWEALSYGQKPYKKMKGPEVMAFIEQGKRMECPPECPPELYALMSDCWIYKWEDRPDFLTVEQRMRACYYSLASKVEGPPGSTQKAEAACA
Outline: as §1

AKT = target: T3, AKT (Homo sapiens, UniProt Q9Y243); test: Kinase inhibition assay (33P transfer), AKT; details: Table 2, kinase inhibition class; read-out: AKT3-1
T3 construct: Kinases are expressed as either kinase domains or full length constructs; made in house
Outline: as §1

Itk = target: T4, Itk (Homo sapiens, UniProt Q08881); test: Kinase inhibition assay (33P transfer), Itk; details: read-out: Itk-1
T4 construct: Kinases are expressed as either kinase domains or full length constructs; made in house
T4 sequence (Q08881 1-620): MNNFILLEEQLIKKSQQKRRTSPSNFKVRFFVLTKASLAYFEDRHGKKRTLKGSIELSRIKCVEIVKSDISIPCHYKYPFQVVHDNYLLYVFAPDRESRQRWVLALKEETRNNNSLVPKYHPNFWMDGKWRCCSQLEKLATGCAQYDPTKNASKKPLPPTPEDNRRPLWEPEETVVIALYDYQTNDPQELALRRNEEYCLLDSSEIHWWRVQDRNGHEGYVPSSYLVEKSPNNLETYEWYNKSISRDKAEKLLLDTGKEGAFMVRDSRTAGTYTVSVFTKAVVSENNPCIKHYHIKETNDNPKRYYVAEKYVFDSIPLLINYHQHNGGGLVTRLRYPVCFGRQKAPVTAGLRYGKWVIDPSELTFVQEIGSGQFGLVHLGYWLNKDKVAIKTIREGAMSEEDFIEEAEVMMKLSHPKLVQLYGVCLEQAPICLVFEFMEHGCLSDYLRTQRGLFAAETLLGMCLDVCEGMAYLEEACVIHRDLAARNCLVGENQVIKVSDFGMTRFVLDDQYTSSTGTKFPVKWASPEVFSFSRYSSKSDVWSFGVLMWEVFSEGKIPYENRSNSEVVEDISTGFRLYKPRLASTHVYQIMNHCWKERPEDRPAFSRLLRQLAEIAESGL
Outline: (§2)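 Activity read as 33P incorporation from ATP into poly(Glu,Tyr) 4:1 or poly(Arg,Ser) 3:1 substrate bound to microtiter plates, measured by scintillation after acid washing. Enzymes were affinity-purified GST or polyHis fusions (kinase domain or full length) from E. coli or baculovirus; IC50 = 50% reduction in labelled phosphate.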

Tek = target: T5, Tek (Homo sapiens, UniProt Q02763); test: Kinase inhibition assay (33P transfer), Tek; details: read-out: Tek-1
T5 construct: Kinases are expressed as either kinase domains or full length constructs; made in house
Description: The inhibitor compounds described herein are screened in the following manner. Kinases suitable for use in the following protocol to determine kinase activity of the compounds described herein include, -but are not limited to: Lck, Lyn, Src, Fyn, Syk, Zap-70, Itk, Tec, Btk, EGFR, ErbB2, Kdr, Flt-1, Flt-3, Tek, c-Met, InsR, and AKT.
Kinases are expressed as either kinase domains or full length constructs fused to glutathione S-transferase (GST) or polyHistidine tagged fusion proteins in either E. colior Baculovirus-High Five expression systems. They are purified to near homogeneity by affinity chromatography essentially as previously described (Lehr et al., 1996; Gish et al., 1995). In some instances, kinases are co-expressed or mixed with purified or partially purified regulatory polypeptides prior to measurement of activity.
Kinase activity and inhibition are measured essentially by established protocols (Braunwalder et al., 1996). Briefly, The transfer of ^33PO4 from ATP to the synthetic substrates poly(Glu, Tyr) 4:1 or poly(Arg, Ser) 3:1 attached to the bioactive surface of microtiter plates serves as the basis to evaluate enzyme activity. After an incubation period, the amount of phosphate transferred is measured by first washing the plate with 0.5% phosphoric acid, adding liquid scintillant, and then counting in a liquid scintillation detector. The IC50 is determined by the concentration of compound that causes a 50% reduction in the amount of […] incorporated onto the substrate bound to the plate.

Lck = target: T6, Lck (Homo sapiens, UniProt P06239); test: Kinase inhibition assay (33P transfer), Lck; details: read-out: Lck-1
T6 construct: Kinases are expressed as either kinase domains or full length constructs; made in house
Outline: as §1

c-Met = target: T7, c-Met (Homo sapiens, UniProt P08581); test: Kinase inhibition assay (33P transfer), c-Met; details: Table 2, kinase inhibition class; read-out: Met-1
T7 construct: Kinases are expressed as either kinase domains or full length constructs; made in house
Outline: as §2

EGFR = target: T8, EGFR (Homo sapiens, UniProt P00533); test: Kinase inhibition assay (33P transfer), EGFR; details: Table 2, kinase inhibition class; read-out: EGFR-1
T8 construct: Kinases are expressed as either kinase domains or full length constructs; made in house
Outline: as §2

T3 sequence (Q9Y243 whole entry, the tested form may be a part): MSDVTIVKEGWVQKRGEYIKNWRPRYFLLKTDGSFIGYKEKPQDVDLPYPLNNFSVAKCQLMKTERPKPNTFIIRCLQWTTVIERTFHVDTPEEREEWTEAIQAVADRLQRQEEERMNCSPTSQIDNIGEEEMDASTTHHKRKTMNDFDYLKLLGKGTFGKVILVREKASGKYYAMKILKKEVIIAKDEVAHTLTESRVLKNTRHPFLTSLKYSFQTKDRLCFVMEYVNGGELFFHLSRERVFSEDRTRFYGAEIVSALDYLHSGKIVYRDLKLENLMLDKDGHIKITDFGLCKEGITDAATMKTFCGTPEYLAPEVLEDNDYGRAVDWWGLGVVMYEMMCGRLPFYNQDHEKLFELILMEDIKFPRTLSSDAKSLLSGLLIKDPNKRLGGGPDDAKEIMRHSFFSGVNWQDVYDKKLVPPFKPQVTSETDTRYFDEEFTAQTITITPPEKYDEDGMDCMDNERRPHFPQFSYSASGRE
T8 sequence (P00533 25-1210, species assumed): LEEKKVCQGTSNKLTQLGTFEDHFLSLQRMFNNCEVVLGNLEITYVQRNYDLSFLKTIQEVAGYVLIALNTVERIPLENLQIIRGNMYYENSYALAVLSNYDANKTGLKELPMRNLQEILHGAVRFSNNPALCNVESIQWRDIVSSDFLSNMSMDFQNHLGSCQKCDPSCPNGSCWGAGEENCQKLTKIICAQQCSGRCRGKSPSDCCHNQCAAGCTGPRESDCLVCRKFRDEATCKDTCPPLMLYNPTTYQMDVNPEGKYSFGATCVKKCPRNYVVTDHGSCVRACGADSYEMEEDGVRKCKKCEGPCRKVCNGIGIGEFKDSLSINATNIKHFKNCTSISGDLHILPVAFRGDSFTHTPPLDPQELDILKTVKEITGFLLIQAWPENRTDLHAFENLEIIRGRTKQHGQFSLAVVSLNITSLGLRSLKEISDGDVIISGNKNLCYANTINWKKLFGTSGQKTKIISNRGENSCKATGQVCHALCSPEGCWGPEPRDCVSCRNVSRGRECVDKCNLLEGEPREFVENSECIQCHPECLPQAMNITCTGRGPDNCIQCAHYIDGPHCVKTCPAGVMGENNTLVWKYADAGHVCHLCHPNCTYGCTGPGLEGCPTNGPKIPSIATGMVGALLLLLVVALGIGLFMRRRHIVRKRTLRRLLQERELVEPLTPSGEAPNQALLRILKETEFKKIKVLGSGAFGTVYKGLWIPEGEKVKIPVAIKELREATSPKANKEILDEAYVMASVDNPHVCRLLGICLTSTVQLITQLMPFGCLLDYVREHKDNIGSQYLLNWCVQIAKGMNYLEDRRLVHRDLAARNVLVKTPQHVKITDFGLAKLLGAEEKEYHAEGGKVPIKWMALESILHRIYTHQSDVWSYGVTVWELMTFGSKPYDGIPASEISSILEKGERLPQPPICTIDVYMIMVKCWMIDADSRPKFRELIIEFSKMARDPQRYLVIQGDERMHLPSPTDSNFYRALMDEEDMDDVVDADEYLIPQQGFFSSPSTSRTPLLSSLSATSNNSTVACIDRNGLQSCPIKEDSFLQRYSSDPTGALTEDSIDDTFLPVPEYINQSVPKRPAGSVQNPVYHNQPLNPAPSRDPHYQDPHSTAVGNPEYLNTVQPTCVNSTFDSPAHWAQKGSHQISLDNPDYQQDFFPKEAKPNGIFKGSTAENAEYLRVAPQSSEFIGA
T6 sequence (P06239 whole entry, species assumed, the tested form may be a part): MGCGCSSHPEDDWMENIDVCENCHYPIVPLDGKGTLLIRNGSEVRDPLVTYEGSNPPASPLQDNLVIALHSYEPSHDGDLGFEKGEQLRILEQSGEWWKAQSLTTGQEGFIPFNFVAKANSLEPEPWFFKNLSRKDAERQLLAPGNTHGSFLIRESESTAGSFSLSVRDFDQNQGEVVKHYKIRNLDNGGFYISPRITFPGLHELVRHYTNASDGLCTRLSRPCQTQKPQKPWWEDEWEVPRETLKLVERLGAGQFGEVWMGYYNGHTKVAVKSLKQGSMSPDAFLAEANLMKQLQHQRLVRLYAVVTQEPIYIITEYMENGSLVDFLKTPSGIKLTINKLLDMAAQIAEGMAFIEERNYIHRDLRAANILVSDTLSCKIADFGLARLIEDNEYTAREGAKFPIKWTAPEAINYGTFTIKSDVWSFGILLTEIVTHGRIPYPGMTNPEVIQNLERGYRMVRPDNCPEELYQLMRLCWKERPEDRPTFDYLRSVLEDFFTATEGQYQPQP
T7 sequence (P08581 25-1390): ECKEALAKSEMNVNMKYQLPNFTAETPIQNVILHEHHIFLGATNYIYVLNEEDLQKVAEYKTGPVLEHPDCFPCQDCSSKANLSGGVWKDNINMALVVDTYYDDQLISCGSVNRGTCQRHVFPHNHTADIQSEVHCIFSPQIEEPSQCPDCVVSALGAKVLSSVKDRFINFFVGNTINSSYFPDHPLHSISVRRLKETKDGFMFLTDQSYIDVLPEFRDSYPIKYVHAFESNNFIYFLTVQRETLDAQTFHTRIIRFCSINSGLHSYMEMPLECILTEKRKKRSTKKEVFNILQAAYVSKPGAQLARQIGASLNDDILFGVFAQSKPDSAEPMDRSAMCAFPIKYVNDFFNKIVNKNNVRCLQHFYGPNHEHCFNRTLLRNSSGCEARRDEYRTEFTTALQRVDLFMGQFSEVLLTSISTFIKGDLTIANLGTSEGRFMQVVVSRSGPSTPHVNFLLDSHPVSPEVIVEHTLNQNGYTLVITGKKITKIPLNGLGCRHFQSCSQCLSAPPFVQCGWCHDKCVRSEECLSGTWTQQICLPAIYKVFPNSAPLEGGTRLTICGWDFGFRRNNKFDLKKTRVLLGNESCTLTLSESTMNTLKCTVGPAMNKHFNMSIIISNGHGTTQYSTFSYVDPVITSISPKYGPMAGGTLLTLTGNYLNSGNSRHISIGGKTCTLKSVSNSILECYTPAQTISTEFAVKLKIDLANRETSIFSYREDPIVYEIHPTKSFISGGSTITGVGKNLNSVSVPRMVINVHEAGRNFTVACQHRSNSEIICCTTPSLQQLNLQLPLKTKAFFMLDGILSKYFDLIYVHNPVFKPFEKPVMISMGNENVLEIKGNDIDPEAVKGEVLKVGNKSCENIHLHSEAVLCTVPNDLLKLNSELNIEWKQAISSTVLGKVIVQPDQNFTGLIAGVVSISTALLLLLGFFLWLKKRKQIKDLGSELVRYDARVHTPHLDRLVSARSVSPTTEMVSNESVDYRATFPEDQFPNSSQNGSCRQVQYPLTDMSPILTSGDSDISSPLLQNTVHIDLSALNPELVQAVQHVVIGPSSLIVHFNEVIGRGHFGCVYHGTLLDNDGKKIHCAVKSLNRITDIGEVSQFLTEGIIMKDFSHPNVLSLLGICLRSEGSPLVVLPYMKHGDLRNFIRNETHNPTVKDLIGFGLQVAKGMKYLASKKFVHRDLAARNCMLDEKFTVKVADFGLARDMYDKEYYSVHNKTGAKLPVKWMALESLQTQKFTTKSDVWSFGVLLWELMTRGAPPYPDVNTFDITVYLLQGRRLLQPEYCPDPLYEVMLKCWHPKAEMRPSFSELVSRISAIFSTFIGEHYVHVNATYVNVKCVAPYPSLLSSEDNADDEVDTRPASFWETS
T1 sequence (P35968 20-1356, species assumed): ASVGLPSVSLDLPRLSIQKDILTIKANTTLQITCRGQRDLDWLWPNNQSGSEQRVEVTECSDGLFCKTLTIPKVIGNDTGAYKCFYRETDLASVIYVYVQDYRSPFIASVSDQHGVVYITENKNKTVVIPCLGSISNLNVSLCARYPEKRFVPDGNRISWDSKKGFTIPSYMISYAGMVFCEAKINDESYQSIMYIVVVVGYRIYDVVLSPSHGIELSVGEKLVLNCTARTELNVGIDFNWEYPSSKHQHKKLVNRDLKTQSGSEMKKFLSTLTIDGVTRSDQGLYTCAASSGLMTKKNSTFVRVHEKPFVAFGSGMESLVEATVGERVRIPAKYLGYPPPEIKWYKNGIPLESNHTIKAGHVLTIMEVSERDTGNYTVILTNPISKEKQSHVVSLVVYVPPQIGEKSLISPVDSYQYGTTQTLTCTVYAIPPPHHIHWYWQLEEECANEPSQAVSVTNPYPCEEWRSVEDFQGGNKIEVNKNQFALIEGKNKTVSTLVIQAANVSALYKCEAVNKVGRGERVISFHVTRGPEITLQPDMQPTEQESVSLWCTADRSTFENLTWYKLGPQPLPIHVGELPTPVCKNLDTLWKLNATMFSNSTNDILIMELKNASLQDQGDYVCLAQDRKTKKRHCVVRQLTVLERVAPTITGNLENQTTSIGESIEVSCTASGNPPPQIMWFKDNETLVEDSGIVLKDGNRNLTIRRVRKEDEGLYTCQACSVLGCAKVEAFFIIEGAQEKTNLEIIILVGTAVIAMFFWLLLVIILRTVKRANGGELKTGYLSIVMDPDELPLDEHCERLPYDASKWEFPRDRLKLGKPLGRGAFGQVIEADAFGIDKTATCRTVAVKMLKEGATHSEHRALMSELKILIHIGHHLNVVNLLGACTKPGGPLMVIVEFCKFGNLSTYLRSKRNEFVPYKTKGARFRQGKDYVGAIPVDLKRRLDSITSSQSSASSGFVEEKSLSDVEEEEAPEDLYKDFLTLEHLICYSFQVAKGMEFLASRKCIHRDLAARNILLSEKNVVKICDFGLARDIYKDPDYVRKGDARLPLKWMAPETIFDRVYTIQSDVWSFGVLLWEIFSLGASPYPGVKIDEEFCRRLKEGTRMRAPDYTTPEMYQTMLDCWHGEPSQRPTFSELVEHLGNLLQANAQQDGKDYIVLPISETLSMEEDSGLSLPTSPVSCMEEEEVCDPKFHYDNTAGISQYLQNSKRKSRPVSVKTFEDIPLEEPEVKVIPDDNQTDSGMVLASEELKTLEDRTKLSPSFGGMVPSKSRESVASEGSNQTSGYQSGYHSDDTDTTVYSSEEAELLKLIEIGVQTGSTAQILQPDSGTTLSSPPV

SMILES	IC50 (Kdr) [µM]	IC50 (Zap-70) [µM]	IC50 (AKT) [µM]	IC50 (Itk) [µM]	IC50 (Tek) [µM]	IC50 (Lck) [µM]	IC50 (c-Met) [µM]	IC50 (EGFR) [µM]	IC50 (Kdr; Table 3) [µM]	IC50 (Zap-70; Table 3) [µM]	IC50 (Itk; Table 3) [µM]	IC50 (Lck; Table 3) [µM]
CC(C)(C)OC(=O)NCc1cccc(Nc2ncnc(Nc3cc(-c4ccccc4)n[nH]3)n2)c1 [Compound 986]	0.872 to 5.23	> 9.81	> 9.81	5.23 to 7.63	7.63 to 9.81	> 9.81	0.872 to 5.23	5.23 to 7.63				
O=c1[nH]c2ccccc2n1-c1ncnc(Nc2ccccc2[N+](=O)[O-])n1 [Compound 493]	> 12.9	> 12.9	> 12.9	> 12.9	6.87 to 10	> 12.9	10 to 12.9	> 12.9				
COc1ccccc1Nc1nc2ccccc2n1-c1ncnc(Nc2cc(OC)c(OC)c(OC)c2)n1 [Compound 398]			> 9.01		7.01 to 9.01		> 9.01	> 9.01	4.8 to 7.01	> 9.01	> 9.01	> 9.01
O=c1[nH]c2ccccc2n1-c1ncnc(Nc2ccc(OC(F)(F)F)cc2)n1 [Compound 462]			> 11.6		6.18 to 9.01		9.01 to 11.6	> 11.6	> 11.6	6.18 to 9.01	> 11.6	9.01 to 11.6
CC(C)(C)OC(=O)NCc1ccc(Nc2ncnc(Nc3cc(-c4ccco4)n[nH]3)n2)cc1 [Compound 431]			5.35 to 7.8		5.35 to 7.8		> 10	0.892 to 5.35	0.892 to 5.35	> 10	5.35 to 7.8	7.8 to 10
COc1cc(OC)nc(Nc2ncnc(-n3c(=O)[nH]c4ccccc43)n2)n1 [Compound 491]	9.55 to 12.3	> 12.3	> 12.3	> 12.3	1.09 to 6.55	> 12.3	> 12.3	> 12.3				
COc1cc(Nc2ncnc(-n3c(NCc4ccccn4)nc4ccccc43)n2)cc(OCCN2CCOCC2)c1OC [Compound 507]	< 0.685	> 7.71	> 7.71	> 7.71	6 to 7.71	0.685 to 4.11	> 7.71	> 7.71				
COc1cc(Nc2ncnc(-c3c(O)n(C)c4ccccc34)n2)cc(OC)c1OC [Compound 465]			> 11		> 11		> 11	> 11	0.982 to 5.89	> 11	> 11	> 11
COc1cc(Nc2ncnc(Nc3ncnc4[nH]cnc34)n2)cc(OC)c1OC [Compound 696]	> 11.4	> 11.4	> 11.4	> 11.4	> 11.4	> 11.4	> 11.4	> 11.4				
Nc1nc2ccccc2n1-c1ncnc(Nc2ccc(Cl)c(Cl)c2)n1 [Compound 528]	1.07 to 6.45	1.07 to 6.45	1.07 to 6.45	1.07 to 6.45	1.07 to 6.45	1.07 to 6.45	1.07 to 6.45	1.07 to 6.45				
COc1cc(Nc2ncnc(-n3c(Nc4cc(OC)c(OC)c(OC)c4)nc4ccccc43)n2)cc(OC)c1OC [Compound 402]			> 8.04		> 8.04		> 8.04	> 8.04	0.715 to 4.29	> 8.04	> 8.04	> 8.04
COc1cc(Nc2ncnc(-n3c(NCCc4ccncc4)nc4ccccc43)n2)cc(OC)c1OC [Compound 948]	0.802 to 4.81	> 9.03	> 9.03	4.81 to 7.02	> 9.03	4.81 to 7.02	> 9.03	> 9.03				
COc1cc(Nc2ncnc(-n3c(NCc4ncccc4C)nc4ccccc43)n2)cc(OC)c1OC [Compound 941]	> 9.03	> 9.03	> 9.03	> 9.03	> 9.03	> 9.03	> 9.03	> 9.03				
COC(=O)C(c1ccccc1)c1ncnc(Nc2cc(OC)c(OC)c(OC)c2)n1 (stereo not shown) [Compound 1038]	> 11	> 11	> 11	> 11	> 11	0.975 to 5.85	> 11	> 11				
COc1cc(Nc2ncnc(Nc3cccc4ncccc34)n2)cc(OC)c1OC [Compound 695]	< 0.989	> 11.1	> 11.1	0.989 to 5.93	5.93 to 8.65	< 0.989	> 11.1	5.93 to 8.65				
O=c1[nH]c2ccccc2n1-c1ncnc(Nc2ccncn2)n1 [Compound 492]	7.84 to 11.4	11.4 to 14.7	> 14.7	> 14.7	7.84 to 11.4	> 14.7	7.84 to 11.4	7.84 to 11.4				
CC(C)(C)c1cc(Nc2ncnc(Nc3ccc(CC(=O)O)cc3)n2)[nH]n1 [Compound 980]	> 12.2	> 12.2	1.09 to 6.53	9.53 to 12.2	> 12.2	> 12.2	9.53 to 12.2	1.09 to 6.53				
COc1cc(Nc2ncnc(-n3c(NCc4ccc(Br)cc4)nc4ccccc43)n2)cc(OC)c1OC [Compound 940]	< 0.711	> 8	> 8	> 8	> 8	6.22 to 8	> 8	> 8				
COc1cc(Nc2ncnc(Nc3n[nH]c(Nc4ccc(Cl)cc4)n3)n2)cc(OC)c1OC [Compound 1003]	0.851 to 5.11	5.11 to 7.45	> 9.58	0.851 to 5.11	0.851 to 5.11	0.851 to 5.11	0.851 to 5.11	5.11 to 7.45				
COc1cc(Nc2ncnc(Nc3cc(-c4cccc(Cl)c4)n[nH]3)n2)cc(OC)c1OC [Compound 495]	7.71 to 9.91	> 9.91	> 9.91	> 9.91	> 9.91	5.29 to 7.71	0.881 to 5.29	0.881 to 5.29				
